The values that follow come from patent US10995091B2 (Proximagen, LLC, priority 2010, dated 2021).

The target of the test is T1, Human CXCR4 transfected HEK293 cells (Homo sapiens, UniProt P61073).
T1 construct: expressed in transfected cells; host or cells: HEK293
Put plainly: CXCR4 functional calcium assay (calcium flux FLIPR, antagonism of SDF1 response). The class given is cell-based. The conditions noted are these: CXCR4 functional activity, antagonism of SDF1 (EC50 concentration), read-out: CXCR4 fKi. Summed up: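 Dose-dependent antagonism of the SDF1 response was read by FLIPR as Fluo-4 calcium signal (2 μM dye) in CXCR4-expressing human HEK293 cells, in HBSS with probenecid, BSA and HEPES at pH 7.4 and 37° C. Test compound was given before an EC50-level SDF1 challenge. Curves were then fitted.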
For orientation: Calcium assays in cells follow changes in intracellular calcium, usually with a dye or a luminescent sensor.

T1 sequence (P61073 whole entry): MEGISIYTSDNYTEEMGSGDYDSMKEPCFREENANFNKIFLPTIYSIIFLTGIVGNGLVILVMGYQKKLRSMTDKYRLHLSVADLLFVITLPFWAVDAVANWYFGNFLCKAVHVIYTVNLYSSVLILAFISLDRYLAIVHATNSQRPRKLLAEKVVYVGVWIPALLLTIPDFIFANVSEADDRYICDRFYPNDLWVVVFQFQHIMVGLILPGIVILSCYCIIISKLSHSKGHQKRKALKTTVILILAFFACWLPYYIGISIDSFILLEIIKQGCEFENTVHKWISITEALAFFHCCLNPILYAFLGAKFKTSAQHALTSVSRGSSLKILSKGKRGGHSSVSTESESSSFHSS

Regarding `CC(C)N1CCC(N2CCCN(c3cccc(C(=O)N(C)Cc4cccnc4)n3)CC2)CC1` [Example 35, N-Methyl-6-{4-[1-(Propan-2-yl)piperidin-4-yl]-1,4-diazepan-1-yl}-N-(pyridin-3-ylmethyl)pyridine-2-carboxamide], the Ki was in the range of 0.1 to 0.5 µM.

For the compound `Cc1ccc2nc(-c3cccc(N4CCCN(C5CCN(C(C)C)CC5)CC4)n3)[nH]c2c1` [Example 148, 6-Methyl-2-(6-{4-[1-(propan-2-yl)piperidin-4-yl]-1,4-diazepan-1-yl}pyridine-2-yl)-1H-1,3-benzodiazole], the Ki is 0.02 to 0.1 µM. The result for `CC(C)N1CCC(N2CCCN(c3cccc(C(=O)Nc4ccc(Cl)cc4)n3)CC2)CC1` [Example 25, N-(4-Chlorophenyl)-6-{4-[1-(propan-2-yl)piperidin-4-yl]-1,4-diazepan-1-yl}pyridine-2-carboxamide] reads 0.1 to 0.5 µM; that for `NC(=O)c1cccc(N2CCCN(C3CCN(Cc4ccccc4Cl)CC3)CC2)n1` [Example 136, 6-(4-{1-[(2-Chlorophenyl)methyl]piperidin-4-yl}-1,4-diazpan-1-yl)pyridine-2-carboxamide], 0.1 to 0.5 µM; that for `[2H]C1([2H])CCN(C2CCN(C3CCCC3)CC2)CCN1c1cccc(C(=O)Nc2ccncc2)n1` [Example 179, 6-[4-(1-Cyclopentylpiperidin-4-yl)-7,7-dihydrogenio-1,4-diazepan-1-yl]-N-(pyridine-4-yl)pyridine-2-carboxamide], less than 0.02 µM.

As for `Cc1cc(NC(=O)c2cccc(N3CCCN(C4CCN(Cc5ccccc5Cl)CC4)CC3)n2)ccn1` [Example 84, 6-(4-{1-[(2-Chlorophenyl)methyl]piperidin-4-yl}-1,4-diazepan-1-yl)-N-(2-methylpyridine-4-yl)pyridine-2-carboxamide], the Ki was less than 0.02 µM. Under `Cc1ccc(N2CCCN(C3CCN(Cc4ccccc4Cl)CC3)CC2)nc1` [Example 263, 1-{1-[(2-Chlorophenyl)methyl]piperidin-4-yl}-4-(5-methylpyridin-2-yl)-1,4-diazepane] stands 0.1 to 0.5 µM. The result for `CC(C)N1CCC(N2CCCN(c3cccc(-c4cc5ccccc5n4C)n3)CC2)CC1` [Example 95, 1-Methyl-2-(6-{4-[1-(propan-2-yl)piperidin-4-yl]-1,4-diazepan-1-yl}pyridine-2-yl)-1H-indole] reads 0.1 to 0.5 µM; that for `OCc1cccc(N2CCCN(C3CCN(Cc4ccccc4Cl)CC3)CC2)n1` [Example 260, [6-(4-{1-[(2-Chlorophenyl)methyl]piperidin-4-yl}-1,4-diazepan-1-yl)pyridin-2-yl]methanol], 0.5 to 1 µM; that for `CC(C)N1CCC(N2CCCN(c3cccc(-c4nc5cccc(F)c5[nH]4)n3)CC2)CC1` [Example 142, 7-Fluoro-2-(6-{4-[1-(propan-2-yl)piperidin-4-yl]-1,4-diazepan-1-yl}pyridine-2-yl)-1H-1,3-benzodiazole], 0.02 to 0.1 µM. `CC(C)N1CCC(N2CCCN(c3cccc(-c4noc(C(C)(C)C)n4)n3)CC2)CC1` [Example 159, 1-[6-(5-tert-Butyl-1,2,4-oxadiazol-3-yl)pyridine-2-yl]-4-[1-(propan-2-yl)piperidin-4-yl]-1,4-diazepane]: the Ki was in the range of 0.5 to 1 µM. Under `O=C(Nc1ccncc1)c1cccc(N2CCN(C3CCCN(Cc4ccc(F)cc4Cl)CC3)CC2)n1` (stereo not drawn) [Example 241, 6-(4-{1-[(2-Chloro-4-fluorophenyl)methyl]azepan-4-yl}piperazin-1-yl)-N-(pyridin-4-yl)pyridine-2-carboxamide] stands 0.02 to 0.1 µM.

`O=C(NCc1ncco1)c1cccc(N2CCCN(C3CCN(Cc4ccccc4Cl)CC3)CC2)n1` [Example 57, 6-(4-{1-[(2-Chlorophenyl)methyl]piperidin-4-yl}-1,4-diazepan-1-yl)-N-(1,3-oxazol-2-ylmethyl)pyridine-2-carboxamide]: the Ki was in the range of 0.02 to 0.1 µM. The result for `CC(C)N1CCOCC1CCN1CCCN(c2cccc(C(=O)Nc3ccncc3)n2)CC1` (stereo not drawn) [Example 201, 6-(4-{2-[4-(Propan-2-yl)morpholin-3-yl]ethyl}-1,4-diazepan-1-yl)-N-(pyridin-4-yl)pyridine 2-carboxamide] reads 0.1 to 0.5 µM.

Consider `CC(C)(N1CCC(N2CCCN(c3cccc(C(=O)NCc4cccnc4)n3)CC2)CC1)C(F)(F)F` [Example 91, N-(Pyridin-3-ylmethyl)-6-{4-[1-(1,1,1-trifluoro-2-methylpropan-2-yl)piperidin-4-yl]-1,4-diazepan-1-yl}pyridine-2-carboxamide], for which the Ki was in the range of 0.1 to 0.5 µM.

With `C[C@H](c1ccccc1)N1CCC(N2CCCN(c3cccc(C(=O)NCc4cccnc4)n3)CC2)CC1` [Example 92, 6-(4-{1-[(1R)-1-Phenylethyl]piperidin-4-yl}-1,4-diazepan-1-yl)-N-(pyridine-3-ylmethyl)pyridine-2-carboxamide], the Ki fell in the range of 0.02 to 0.1 µM.

Take `CC(C)N1CCC(N2CCCN(c3cccc(-c4noc(CC(C)(C)C)n4)n3)CC2)CC1` [Example 160, 1-{6-[5-(2,2-Dimethylpropyl)-1,2,4-oxadiazol-3-yl]pyridine-2-yl}-4-[1-(propan-2-yl)piperidin-4-yl]-1,4-diazepane]: the Ki lay within 0.1 to 0.5 µM. With `CC(C)N1CCC(N2CCCN(c3cccc(-c4noc(-c5ccccc5)n4)n3)CC2)CC1` [Example 164, 1-[6-(5-Phenyl-1,2,4-oxadiazol-3-yl)pyridine-2-yl]-4-[1-(propan-2-yl)piperidin-4-yl]-1,4-diazepane], the Ki was 0.02 to 0.1 µM. The result for `CC(C)(C)c1cnc(-c2cccc(N3CCCN(C4CCN(C(C)(C)C)CC4)CC3)n2)[nH]1` [Example 117, 1-[6-(4-tert-Butyl-1H-imidazol-2-yl)pyridine-2-yl]-4-(1-tert-butylpiperidin-4-yl)-1,4-diazepane] reads 0.1 to 0.5 µM; that for `CC(C)N1CCC(N2CCCN(c3cccc(C(=O)Nc4ccccc4)n3)CC2)CC1` [Example 23, N-Phenyl-6-{4-[1-(propan-2-yl)piperidin-4-yl]-1,4-diazepan-1-yl}pyridine-2-carboxamide], less than 0.02 µM; that for `Cc1nc(-c2cccc(NCCNC3CCN(C4CCCC4)CC3)n2)[nH]c1C1CC1` [Example 232, 1-Cyclopentyl-N-(2-{[6-(5-cyclopropyl-4-methyl-1H-imidazol-2-yl)pyridin-2-yl]amino}ethyl)piperidin-4-amine], 0.1 to 0.5 µM. Under `CC(C)(C)N1CCC(N2CCCN(c3cccc(C(=O)NCC4CC4)n3)CC2)CC1` [Example 64, 6-[4-(1-tert-Butylpiperidin-4-yl)-1,4-diazepan-1-yl]-N-(cyclopropylmethyl)pyridine-2-carboxamide] stands 0.02 to 0.1 µM. The result for `CC(C)N1CCC(N2CCCN(c3cccc(C(=O)N4CCc5ccccc54)n3)CC2)CC1` [Example 21, 1-[(6-{4-[1-(Propan-2-yl)piperidin-4-yl]-1,4-diazepan-1-yl}pyridin-2-yl)carbonyl]-2,3-dihydro-1H-indole] reads 0.1 to 0.5 µM. For the compound `CC(C)N1CCC(N2CCCC(Nc3cccc(C(=O)Nc4ccncc4)n3)C2)CC1` (stereo not drawn) [Example 222, 6-({1-[1-(Propan-2-yl)piperidin-4-yl]piperidin-3-yl}amino)-N-(pyridin-4-yl)pyridine-2-carboxamide], the Ki was 0.5 to 1 µM. Under `COCC(C)N1CCC(N2CCCN(c3cccc(C(=O)NCC4CC4)n3)CC2)CC1` (stereo not drawn) [Example 127, N-(Cyclopropylmethyl)-6-{4-[1-(1-methoxypropan-2-yl)piperidin-4-yl]-1,4-diazepan-1-yl}pyridine-2-carboxamide] stands 0.02 to 0.1 µM; under `CC(C)N1CCC(NCCCNc2cccc(C(=O)Nc3ccncc3)n2)CC1` [Example 239, 6-[(3-{[1-(Propan-2-yl)piperidin-4-yl]amino}propyl)amino]-N-(pyridin-4-yl)pyridine-2-carboxamide], 0.1 to 0.5 µM.

For `COCCNC(=O)c1cccc(N2CCCN(C3CCN(Cc4ccccc4Cl)CC3)CC2)n1` [Example 50, 6-(4-{1-[(2-Chlorophenyl)methyl]piperidin-4-yl}-1,4-diazepan-1-yl)-N-(2-methoxyethyl)pyridine-2-carboxamide], the Ki was 0.1 to 0.5 µM. For `CC(C)N1CCC(N2CCCN(c3cccc(-c4nc5ccc(F)cc5[nH]4)n3)CC2)CC1` [Example 147, 6-Fluoro-2-(6-{4-[1-(propan-2-yl)piperidin-4-yl]-1,4-diazepan-1-yl}pyridine-2-yl)-1H-1,3-benzodiazole], the Ki fell in the range of 0.02 to 0.1 µM. The result for `[2H]C1([2H])CCN(c2cccc(C(=O)Nc3ccncc3)n2)CCN1C1CCN(Cc2ccc(F)cc2Cl)CC1` [Example 203, 6-(4-{1-[(2-Chloro-4-fluorophenyl)methyl]piperidin-4-yl}-5,5-dihydrogenio-1,4-diazepan-1-yl)-N-(pyridin-4-yl)pyridine-2-carboxamide] reads less than 0.02 µM; that for `CC(C)N1CCC(N2CCCN(c3cccc(C(=O)NCCc4ccccn4)n3)CC2)CC1` [Example 46, 6-{4-[1-(Propan-2-yl)piperidin-4-yl]-1,4-diazepan-1-yl}-N-[2-(pyridin-2-yl)ethyl]pyridine-2-carboxamide], 0.02 to 0.1 µM. For `CC(C)N1CCC(N2CCCN(c3cccc(C(=O)NCc4nccn4C)n3)CC2)CC1` [Example 37, N-[(1-Methyl-1H-imidazol-2-yl)methyl]-6-{4-[1-(propan-2-yl)piperidin-4-yl]-1,4-diazepan-1-yl}pyridine-2-carboxamide], the Ki lay in the range of 0.1 to 0.5 µM. The result for `CCCc1cnc(-c2cccc(N3CCCN(C4CCN(C(C)C)CC4)CC3)n2)[nH]1` [Example 109, 1-[1-(Propan-2-yl)piperidin-4-yl]-4-[6-(4-propyl-1H-imidazol-2-yl)pyridine-2-yl]-1,4-diazepane] reads 0.02 to 0.1 µM; that for `CC(C)N1CCC(N2CCCN(c3cccc(C(=O)NC4CC4)n3)CC2)CC1` [Example 11, N-Cyclopropyl-6-{4-[1-(propan-2-yl)piperidin-4-yl]-1,4-diazepan-1-yl}pyridine-2-carboxamide], 0.1 to 0.5 µM.
